Measurements from patent US12661415B2, “Isoindolinone compounds and imaging agents for imaging Huntingtin protein” (CHDI Foundation, Inc., priority 2021, dated 2026).
pIC50: −log10 of the molar value.

What was measured:
[1] = Unbound brain fraction (fu,brain) in mouse brain by equilibrium dialysis; format: in vitro ADME; details: 20% mouse brain homogenate, 5 μM, equilibrium dialysis 6 h at 37° C., average of triplicate
Experimental: Compounds were tested for unbounded brain fraction (or free fraction in brain, fu,brain). It is an accepted standard in the CNS PET imaging field that compounds with low unbound fraction in brain (<5%) likely have high non-specific binding background that is undesirable for the detection of target binding. As a result, fu,brain is an important property in the design of PET ligands for brain imaging [see Zhang et al., Design and selection parameters to accelerate the discovery of novel central nervous system positron emission tomography (PET) ligands and their application in the development of a novel phosphodiesterase 2A PET ligand. J Med Chem 2013, 56 (11), 4568-79; Liu et al., Imaging Mutant Huntingtin Aggregates: Development of a Potential PET Ligand. J Med Chem 2020, 63 (15), 8608-8633].
Determining fu,brain in Mouse Brain by Equilibrium Dialysis. Dialysis membranes (12-14 kDa) (HTDialysis, Connecticut) were soaked in phosphate buffer (10 mM potassium phosphate and 0.8% sodium chloride buffer, pH 7.4 at 37° C.) for a minimum of 1 h, at this time ethanol was added (final concentration of 20% v/v) and membranes continued to soak for 30 min Mouse brain tissue was diluted in phosphate buffer in a […] (w/v) and homogenised using a Precellys 24 (Stretton Scientific, UK) to achieve a final concentration of 20% brain homogenate.
Test compounds prepared as DMSO stocks at 0.5 mM are diluted into brain homogenate to achieve 5 μM final substrate concentration (1% DMSO) and a t=0 sample was prepared by sampling 50 μL of into 400 μL of quench solution (Acetonitrile containing 0.1% formic acid and sulfisoxazole/tolbutamide/imipramine/labetalol 200 nM). Samples were matrix matched with the addition of 50 μL of assay buffer. The HTDialysis Teflon blocks (HTDialysis, Connecticut) were assembled with pre-soaked membrane between each receiver and donor well and clamped in the stainless steel pressure plate (HTDialysis, Connecticut). The lower compartment (acceptor side) was dosed with 120 μL of buffer and the upper compartment (donor side) was dosed with 120 μL of compound in homogenate. All test compounds and controls were completed in triplicate. The HT dialysis plate was sealed and incubated for 6 h at 37° C. shaking at 250 rpm.
Following the incubation, 50 μL of sample was removed from all donor and acceptor wells and transferred into a quench plate containing 400 μL of quench solution. All samples were matrix matched with 50 μL of the alternate blank matrix. Analytical samples were diluted 1:1 with water using the Janus Robot and analysed by LC-MS/MS.
Peak areas of donor and acceptor compartments were compared to determine percent unbound (% fu) and the average of triplicate measurements was reported. Reference T0 sample was used to calculate sample recovery (%). Control compounds were compared with historic and literature values to ensure assay functionality.

[2] = target: T1, MBP-HTT(1-89)Q46-His(6×) (Exon1-Q46) protein aggregates (Homo sapiens, UniProt P42858, INS38QQQQQQQQQQQQQQQQQQQQQQQQQ); test: Exon1-Q46 radioligand binding assay (RBA); details: aggregated Exon1-Q46 1 μM; 0.3 nM ligand [3H3-methyl]-5-((5-methoxypyridin-2-yl)methoxy)-2-(pyrazin-2-yl)benzo[d]oxazole; 60 minutes at 37° C.; read-out: Potency Range (IC50)
T1 construct: MBP-HTT(1-89)Q46-His(6×); His(6×) (C); made in house
T1 sequence (P42858 with tags, fused parts or gaps with the stated changes): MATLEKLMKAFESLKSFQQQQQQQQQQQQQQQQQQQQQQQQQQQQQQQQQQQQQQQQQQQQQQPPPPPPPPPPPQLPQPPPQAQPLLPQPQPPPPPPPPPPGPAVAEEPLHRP
Experimental: Exon1-Q46 Radioligand Binding Assay
For radioligand binding assays (RBA) MBP-HTT(1-89)Q46-His(6×) (“Exon1-Q46”) protein was generated based on a previous publication (Scherzinger et al. Cell, Vol. 90, 549-558, Aug. 8, 1997). For experiments 30 μM MBP-Exon1-Q46 was incubated with 150 μg/mL thrombin in assay buffer (150 mM NaCl, 50 mM Tris pH 8.0) and 2 mM CaCl2 for 16 hours at 37° C. Aggregated Exon1-Q46 was pelleted by centrifugation for 5 minutes at 13,000 rpm in a bench top centrifuge and re-dissolved in the same volume of assay buffer. Test compounds were prepared by titration in DMSO at 11 concentrations from 63 μM to 2 nM. For the RBA, Exon1-Q46 protein aggregates and test compounds were pre-incubated in assay buffer for 20 minutes at room temperature, in 100 μL/well in a 96-well plate (pp, round bottom). Then, ligand was added in 50 μL/well and incubated for 60 minutes at 37° C. Final assay concentrations were 1 μM to 30 pM test compound, 1 μM Exon1-Q46 protein (equivalent monomer concentration) and 0.3 nM ligand [^3H3-methyl]-5-((5-methoxypyridin-2-yl)methoxy)-2-(pyrazin-2-yl)benzo[d]oxazole. Samples were transferred onto GF/B filter plates and washed 2× with 200 μL PBS using a Filtermate Harvester. After drying filter plates for 1 hour at 55° C., the back of the plates were sealed with foil and 30 μL/well scintillation fluid (Packard MicroScint 40) added, incubated for 15 minutes in the dark and counted in a MicroBeta reader. For analysis, replicate data from independent assay plates were normalized towards 0% and 100% inhibition using control wells of vehicle (0% inhibition) and 1 μM unlabelled [^3H3-methyl]-5-((5-methoxypyridin-2-yl)methoxy)-2-(pyrazin-2-yl)benzo[d]oxazole (100% inhibition). IC50 values were determined with a sigmoidal inhibition model with four variables (top, bottom, slope, IC50) in a global fit using the normalized replicate data.
The results for various example compounds were as provided in the table below (+++<100 nM; ++100−500 nM; +>500 nM; ND: not determined): […]

SMILES	Mean Free Brain Fraction (%) [1] [%]	pIC50 [2]
COc1ccc(COc2ccc3c(c2)CN(c2ccncc2)C3=O)nc1 [Compound 1-4, 5-[(5-Methoxypyridin-2-yl)methoxy]-2-(pyridin-4-yl)-2,3-dihydro-1H-isoindol-1-one]	3.0	> 7.00
COc1ccc(COc2ccc3c(c2)CN(c2ccc(=O)n(C)n2)C3=O)nc1 [Compound 1-6, 5-[(5-Methoxypyridin-2-yl)methoxy]-2-(1-methyl-6-oxo-1,6-dihydropyridazin-3-yl)-2,3-dihydro-1H-isoindol-1-one]	9.8	> 7.00
COc1cnc(COc2ccc3c(c2)CN(c2ccc(=O)n(C)n2)C3=O)c(F)c1 [Compound 1-7, 5-[(3-Fluoro-5-methoxypyridin-2-yl)methoxy]-2-(1-methyl-6-oxo-1,6-dihydropyridazin-3-yl)-2,3-dihydro-1H-isoindol-1-one]	11.9	> 7.00
[2H]C([2H])(F)C([2H])([2H])Oc1ccc(COc2ccc3c(c2)CN(c2ccc(=O)n(C)n2)C3=O)nc1 [Compound 1-8, 5-({5-[2-Fluoro(1,1,2,2-^2H4)ethoxy]pyridin-2-yl}methoxy)-2-(1-methyl-6-oxo-1,6-dihydropyridazin-3-yl)-2,3-dihydro-1H-isoindol-1-one]	10.1	> 7.00
CC(F)Oc1ccc(COc2ccc3c(c2)CN(c2ccc(=O)n(C)n2)C3=O)nc1 (centres unmarked) [Compound 1-10, 5-{[5-(1-Fluoroethoxy)pyridin-2-yl]methoxy}-2-(1-methyl-6-oxo-1,6-dihydropyridazin-3-yl)-2,3-dihydro-1H-isoindol-1-one]	3.8	> 7.00
COc1cnc(COc2ccc3c(c2)CN(c2ccc(=O)n(C)n2)C3=O)cc1Cl [Compound 1-11, 5-[(4-Chloro-5-methoxypyridin-2-yl)methoxy]-2-(1-methyl-6-oxo-1,6-dihydropyridazin-3-yl)-2,3-dihydro-1H-isoindol-1-one]	1.6	> 7.00
Cn1nc(N2Cc3cc(OCc4ccc(OCCF)cn4)ccc3C2=O)ccc1=O [Compound 2-1, 5-{[5-(2-Fluoroethoxy)pyridin-2-yl]methoxy}-2-(1-methyl-6-oxo-1,6-dihydro-pyridazin-3-yl)-2,3-dihydro-1H-isoindol-1-one]	14.3	> 7.00
COc1ccc(COc2ccc3c(c2)CN(Cc2ccc(OC)nc2)C3=O)nc1 [Compound 7-1, 5-[(5-Methoxypyridin-2-yl)methoxy]-2-[(6-methoxypyridin-3-yl)methyl]-2,3-dihydro-1H-isoindol-1-one]	–	6.30 to 7.00
[2H]C([2H])(F)C([2H])([2H])Oc1ccc(COc2cnc3c(c2)CN(c2ccc(=O)n(C)n2)C3=O)nc1 [Compound 12-9, 6-[3-([5-[2-Fluoro(1,1,2,2-^2H4)ethoxy]pyridin-2-yl]methoxy)-7-oxo-5H,6H,7H-pyrrolo[3,4-b]pyridin-6-yl]-2-methyl-2,3-dihydropyridazin-3-one]	–	> 7.00

Continued, values first:

Mean Free Brain Fraction (%) [1] [%]	pIC50 [2]	SMILES
1.3	–	COc1ccc(COc2ccc3c(c2)CN(c2ccc(=O)n(C)n2)C3)nc1 [Comparative Compound 1, reference compound]
12.0	> 7.00	Cn1nc(N2Cc3cc(OCc4ccc(F)cn4)ccc3C2=O)ccc1=O [Compound 1-1, 5-((5-Fluoropyridin-2-yl)methoxy)-2-(1-methyl-6-oxo-1,6-dihydropyridazin-3-yl)isoindolin-1-one]
1.2	> 7.00	Cn1nc(N2Cc3cc(OCc4ccc(I)cn4)ccc3C2=O)ccc1=O [Compound 1-3, 5-[(5-Iodopyridin-2-yl)methoxy]-2-(1-methyl-6-oxo-1,6-dihydropyridazin-3-yl)-2,3-dihydro-1H-isoindol-1-one]
–	> 7.00	Cn1nc(N2Cc3cc(O)ccc3C2=O)ccc1=O [Compound 1-5, 5-Hydroxy-2-(1-methyl-6-oxo-1,6-dihydropyridazin-3-yl)-2,3-dihydro-1H-isoindol-1-one]
–	> 7.00	[2H]C([2H])(Oc1ccc(COc2ccc3c(c2)CN(c2ccc(=O)n(C)n2)C3=O)nc1)C([2H])([2H])OS(=O)(=O)c1ccc(C)cc1 [Compound 1-9, 2-{[6-({[2-(1-Methyl-6-oxo-1,6-dihydropyridazin-3-yl)-1-oxo-2,3-dihydro-1H-isoindol-5-yl]oxy}methyl)pyridin-3-yl]oxy}(1,1,2,2-^2H4)ethyl 4-methylbenzene-1-sulfonate]
9.0	> 7.00	COc1ccc(COc2ccc3c(c2)C(=O)N(c2ccc(=O)n(C)n2)C3)nc1 [Compound 1-12, 6-[(5-Methoxypyridin-2-yl)methoxy]-2-(1-methyl-6-oxo-1,6-dihydropyridazin-3-yl)-2,3-dihydro-1H-isoindol-1-one]
7.0	> 7.00	COc1ccc(COc2ccc3c(c2)CN(c2ccc(=O)n(C)n2)C3=O)nc1F [Compound 1-13, 5-[(6-Fluoro-5-methoxy-2-pyridyl)methoxy]-2-(1-methyl-6-oxo-pyridazin-3-yl)isoindolin-1-one]
12.0	–	COc1cnc(COc2ccc3c(c2)CN(c2ccc(=O)n(C)n2)C3=O)cc1F [Compound 1-14, 5-[(4-Fluoro-5-methoxypyridin-2-yl)methoxy]-2-(1-methyl-6-oxo-1,6-dihydropyridazin-3-yl)-2,3-dihydro-1H-isoindol-1-one]
12.7	> 7.00	Cn1nc(N2Cc3cc(OCc4ccc(OCF)cn4)ccc3C2=O)ccc1=O [Compound 2-2, 5-{[5-(Fluoromethoxy)pyridin-2-yl]methoxy}-2-(1-methyl-6-oxo-1,6-dihydropyridazin-3-yl)-2,3-dihydro-1H-isoindol-1-one]
–	> 7.00	Cn1nc(N2Cc3cc(OCc4ccc(O)cn4)ccc3C2=O)ccc1=O [Compound 4-1, 5-[(5-Hydroxypyridin-2-yl)methoxy]-2-(1-methyl-6-oxo-1,6-dihydropyridazin-3-yl)-2,3-dihydro-1H-isoindol-1-one]
–	> 7.00	[2H]C([2H])(F)C([2H])([2H])Oc1ccc(COc2ccc3c(c2)CN(c2ccc(=O)[nH]n2)C3=O)nc1 [Compound 9-2, 5-((5-(2-Fluoroethoxy-1,1,2,2-^2H4)pyridin-2-yl)methoxy)-2-(6-oxo-1,6-dihydropyridazin-3-yl)isoindolin-1-one]
